Here are results for eight compounds from ChEMBL document CHEMBL5625175, “Quinazoline-based VEGFR-2 inhibitors as potential anti-angiogenic agents: A contemporary perspective of SAR and molecular docking studies” (Eur J Med Chem, 2023).

One test has as its system HT-29. Put plainly: Antitumor activity against human HT-29 cells assessed as reduction in cell viability incubated for 48 hrs by CCK-8 assay. The class given is functional, cell-based. The following applies: HT-29, 48 h. On the technique in general: Formazan colour is commonly taken as a measure of viable cells.
Another test deals with A549. Put plainly: Antitumor activity against human A549 cells assessed as reduction in cell viability incubated for 48 hrs by CCK-8 assay. The class given is functional, cell-based. Particulars: A549, 48 h.
Test [1] has as its system MCF7. Put plainly: Antitumor activity against human MCF7 cells assessed as reduction in cell viability incubated for 48 hrs by CCK-8 assay. Particulars: MCF7, 48 h. The class given is functional, cell-based.
Test [2] concerns HepG2. Put plainly: Antitumor activity against human HepG2 cells xenografted in athymic nu/nu mouse assessed as tumor growth inhibition at 100 mg/kg, ip administered once daily relative to control. The class given is functional. Set-up: scale not given: the % may be the effect or the level left. (In xenograft studies the graft and the host belong to different species.)
In test [3] the target is T1, Vascular endothelial growth factor receptor 2 (Homo sapiens, UniProt P35968). Put plainly: Inhibition of VEGF-induced human VEGFR2 autophosphorylation expressed in HUVEC cells measured after 2 hrs by chemiluminescence assay. Format: cell-based.
In test [4] the target is Receptor-type tyrosine-protein kinase FLT3 (Homo sapiens) (UniProt P36888). Put plainly: Inhibition of FLT-3 (unknown origin) at 10 uM relative to control.
In test [5] the test system is HepG2. Put plainly: Antitumor activity against human HepG2 cells assessed as reduction in cell growth incubated for 48 hrs by MTT assay. The class given is functional, cell-based. The following applies: HepG2, 48 h.
For test [6], the system named is MCF7. Put plainly: Antitumor activity against human MCF7 cells assessed as reduction in cell growth incubated for 48 hrs by MTT assay. The class given is functional, cell-based. The following applies: MCF7, 48 h.
The test system of the next test is PC-3. Put plainly: Antitumor activity against human PC-3 cells assessed as reduction in cell growth incubated for 48 hrs by MTT assay. The class given is functional, cell-based. The following applies: PC-3, 48 h.
Test [7] deals with Epidermal growth factor receptor (Homo sapiens, UniProt P00533). Put plainly: Inhibition of EGFR (unknown origin) using TK as substrate incubated for 60 mins by HTRF method. (In general: Time-resolved FRET reads energy transfer from a long-lived donor to a nearby acceptor.)
Test [8] deals with T2, Vascular endothelial growth factor receptor 1 (Homo sapiens, UniProt P17948). Put plainly: Inhibition of VEGFR-1 (unknown origin) by HTRF method.
The target of test [9] is T2, Vascular endothelial growth factor receptor 1. Put plainly: Inhibition of VEGFR-1 (unknown origin) at 10 uM relative to control.
In test [10] the target is T1, Vascular endothelial growth factor receptor 2. Put plainly: Inhibition of N-terminal polyhistidine human recombinant KDR using poly-(Glu4-Tyr) peptide as substrate incubated for 60 mins by DELFIA/time-resolved fluorometric analysis.
The target in test [11] is T2, Vascular endothelial growth factor receptor 1. Put plainly: Inhibition of VEGFR1 (unknown origin) by FRET based Z-LYTE kinase assay.
Test [12] addresses T1, Vascular endothelial growth factor receptor 2. Put plainly: Inhibition of VEGFR-2 (unknown origin) using poly-Glu-Ala-Tyr-biotin as substrate pre-incubated for 10 mins followed by substrate addition and measured after 30 mins by HTRF method.

T2 sequence (P17948 whole entry): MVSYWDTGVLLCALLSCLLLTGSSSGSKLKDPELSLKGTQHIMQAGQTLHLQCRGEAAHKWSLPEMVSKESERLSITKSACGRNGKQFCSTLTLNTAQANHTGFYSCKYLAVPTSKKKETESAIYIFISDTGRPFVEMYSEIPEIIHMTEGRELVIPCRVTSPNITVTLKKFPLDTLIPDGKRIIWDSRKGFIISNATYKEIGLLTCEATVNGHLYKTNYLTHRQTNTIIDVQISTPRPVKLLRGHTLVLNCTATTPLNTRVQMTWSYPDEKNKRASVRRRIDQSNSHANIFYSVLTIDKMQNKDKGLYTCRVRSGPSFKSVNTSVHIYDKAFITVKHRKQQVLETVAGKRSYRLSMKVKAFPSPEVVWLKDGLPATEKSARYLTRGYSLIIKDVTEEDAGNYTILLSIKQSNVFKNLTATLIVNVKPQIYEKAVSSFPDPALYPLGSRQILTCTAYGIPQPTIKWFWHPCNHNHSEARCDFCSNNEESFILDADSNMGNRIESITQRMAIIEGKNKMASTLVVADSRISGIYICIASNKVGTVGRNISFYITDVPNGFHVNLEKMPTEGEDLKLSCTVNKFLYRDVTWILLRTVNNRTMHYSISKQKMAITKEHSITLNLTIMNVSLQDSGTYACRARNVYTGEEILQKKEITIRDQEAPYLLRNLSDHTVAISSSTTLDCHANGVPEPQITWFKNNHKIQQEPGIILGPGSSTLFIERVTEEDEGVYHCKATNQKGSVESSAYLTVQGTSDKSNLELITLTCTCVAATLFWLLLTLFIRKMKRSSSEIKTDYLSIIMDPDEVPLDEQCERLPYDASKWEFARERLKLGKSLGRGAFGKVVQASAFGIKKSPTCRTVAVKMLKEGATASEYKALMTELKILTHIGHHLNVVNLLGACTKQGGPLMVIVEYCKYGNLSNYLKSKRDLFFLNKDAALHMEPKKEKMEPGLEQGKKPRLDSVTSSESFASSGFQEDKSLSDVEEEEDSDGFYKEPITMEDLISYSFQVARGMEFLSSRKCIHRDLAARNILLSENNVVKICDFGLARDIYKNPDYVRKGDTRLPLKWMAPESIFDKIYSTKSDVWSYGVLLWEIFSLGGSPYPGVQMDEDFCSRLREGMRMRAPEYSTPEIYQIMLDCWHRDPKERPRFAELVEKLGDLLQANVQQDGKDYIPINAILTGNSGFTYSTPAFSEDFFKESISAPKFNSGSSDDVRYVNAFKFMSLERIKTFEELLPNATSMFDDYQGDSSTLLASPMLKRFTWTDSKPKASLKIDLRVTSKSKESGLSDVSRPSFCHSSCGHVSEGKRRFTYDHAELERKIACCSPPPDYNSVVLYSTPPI
T1 sequence (P35968 whole entry): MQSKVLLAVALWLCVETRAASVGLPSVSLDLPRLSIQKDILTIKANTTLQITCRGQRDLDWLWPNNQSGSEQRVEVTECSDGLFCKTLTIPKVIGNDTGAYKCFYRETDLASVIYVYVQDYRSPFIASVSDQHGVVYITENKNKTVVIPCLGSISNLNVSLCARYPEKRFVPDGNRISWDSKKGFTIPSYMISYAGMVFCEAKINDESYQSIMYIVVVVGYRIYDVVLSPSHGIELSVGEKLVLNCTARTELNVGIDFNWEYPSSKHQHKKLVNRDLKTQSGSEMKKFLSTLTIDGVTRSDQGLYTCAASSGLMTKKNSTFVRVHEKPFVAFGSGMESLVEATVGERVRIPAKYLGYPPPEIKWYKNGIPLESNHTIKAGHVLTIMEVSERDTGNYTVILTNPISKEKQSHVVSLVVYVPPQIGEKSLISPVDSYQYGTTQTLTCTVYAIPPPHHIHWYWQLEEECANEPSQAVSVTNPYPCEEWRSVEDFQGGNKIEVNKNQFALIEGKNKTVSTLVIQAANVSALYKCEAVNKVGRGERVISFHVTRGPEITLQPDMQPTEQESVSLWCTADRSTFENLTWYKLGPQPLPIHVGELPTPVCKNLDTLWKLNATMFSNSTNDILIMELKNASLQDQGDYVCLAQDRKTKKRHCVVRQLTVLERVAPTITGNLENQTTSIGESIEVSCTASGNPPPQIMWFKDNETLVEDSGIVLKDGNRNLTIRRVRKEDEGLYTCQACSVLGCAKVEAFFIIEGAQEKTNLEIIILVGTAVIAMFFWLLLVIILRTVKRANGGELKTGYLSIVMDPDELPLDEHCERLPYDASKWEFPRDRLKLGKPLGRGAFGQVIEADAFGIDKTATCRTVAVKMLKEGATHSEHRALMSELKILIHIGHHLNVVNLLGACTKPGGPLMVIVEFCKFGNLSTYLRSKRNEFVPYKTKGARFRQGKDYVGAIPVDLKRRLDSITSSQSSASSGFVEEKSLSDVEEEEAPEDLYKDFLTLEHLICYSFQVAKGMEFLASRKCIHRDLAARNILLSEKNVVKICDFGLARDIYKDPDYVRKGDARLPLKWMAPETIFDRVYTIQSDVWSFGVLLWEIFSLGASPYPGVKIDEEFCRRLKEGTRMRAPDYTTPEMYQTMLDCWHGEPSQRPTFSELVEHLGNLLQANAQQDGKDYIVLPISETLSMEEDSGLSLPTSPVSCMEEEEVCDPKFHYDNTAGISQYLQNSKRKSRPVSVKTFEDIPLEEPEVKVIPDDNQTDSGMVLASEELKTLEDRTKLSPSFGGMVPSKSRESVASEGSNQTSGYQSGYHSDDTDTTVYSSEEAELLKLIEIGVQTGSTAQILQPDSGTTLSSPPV
Epidermal growth factor receptor, sequence (P00533 whole entry): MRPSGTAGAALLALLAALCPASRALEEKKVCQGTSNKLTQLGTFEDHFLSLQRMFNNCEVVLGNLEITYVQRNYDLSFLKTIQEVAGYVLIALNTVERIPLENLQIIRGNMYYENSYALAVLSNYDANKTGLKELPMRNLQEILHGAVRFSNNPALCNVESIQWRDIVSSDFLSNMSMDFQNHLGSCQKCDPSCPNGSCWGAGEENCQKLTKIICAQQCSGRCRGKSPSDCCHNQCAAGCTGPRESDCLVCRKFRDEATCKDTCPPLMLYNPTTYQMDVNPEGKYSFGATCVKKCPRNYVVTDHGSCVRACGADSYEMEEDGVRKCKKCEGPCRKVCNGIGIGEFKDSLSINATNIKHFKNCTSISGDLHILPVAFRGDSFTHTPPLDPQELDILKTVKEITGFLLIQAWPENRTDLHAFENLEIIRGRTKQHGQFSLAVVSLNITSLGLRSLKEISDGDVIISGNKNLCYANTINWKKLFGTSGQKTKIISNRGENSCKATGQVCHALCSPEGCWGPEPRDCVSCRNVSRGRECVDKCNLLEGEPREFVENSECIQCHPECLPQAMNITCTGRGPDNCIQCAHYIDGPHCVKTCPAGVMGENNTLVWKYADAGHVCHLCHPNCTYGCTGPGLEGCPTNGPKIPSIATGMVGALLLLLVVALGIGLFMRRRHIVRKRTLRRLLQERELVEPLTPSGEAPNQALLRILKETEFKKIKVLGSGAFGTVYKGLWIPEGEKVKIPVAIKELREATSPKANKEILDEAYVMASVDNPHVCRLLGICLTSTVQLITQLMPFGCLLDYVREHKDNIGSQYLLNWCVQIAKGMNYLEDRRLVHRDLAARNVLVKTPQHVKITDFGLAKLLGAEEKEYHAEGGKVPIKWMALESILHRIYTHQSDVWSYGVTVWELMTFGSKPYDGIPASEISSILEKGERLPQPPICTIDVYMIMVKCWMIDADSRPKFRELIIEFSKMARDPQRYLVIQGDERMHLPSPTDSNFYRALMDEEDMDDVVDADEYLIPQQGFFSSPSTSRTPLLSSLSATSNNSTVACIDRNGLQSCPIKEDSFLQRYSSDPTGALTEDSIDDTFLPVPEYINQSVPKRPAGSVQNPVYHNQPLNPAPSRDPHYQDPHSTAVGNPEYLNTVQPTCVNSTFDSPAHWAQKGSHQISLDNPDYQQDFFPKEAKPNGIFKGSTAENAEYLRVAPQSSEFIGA
Receptor-type tyrosine-protein kinase FLT3 (Homo sapiens), sequence (P36888 whole entry): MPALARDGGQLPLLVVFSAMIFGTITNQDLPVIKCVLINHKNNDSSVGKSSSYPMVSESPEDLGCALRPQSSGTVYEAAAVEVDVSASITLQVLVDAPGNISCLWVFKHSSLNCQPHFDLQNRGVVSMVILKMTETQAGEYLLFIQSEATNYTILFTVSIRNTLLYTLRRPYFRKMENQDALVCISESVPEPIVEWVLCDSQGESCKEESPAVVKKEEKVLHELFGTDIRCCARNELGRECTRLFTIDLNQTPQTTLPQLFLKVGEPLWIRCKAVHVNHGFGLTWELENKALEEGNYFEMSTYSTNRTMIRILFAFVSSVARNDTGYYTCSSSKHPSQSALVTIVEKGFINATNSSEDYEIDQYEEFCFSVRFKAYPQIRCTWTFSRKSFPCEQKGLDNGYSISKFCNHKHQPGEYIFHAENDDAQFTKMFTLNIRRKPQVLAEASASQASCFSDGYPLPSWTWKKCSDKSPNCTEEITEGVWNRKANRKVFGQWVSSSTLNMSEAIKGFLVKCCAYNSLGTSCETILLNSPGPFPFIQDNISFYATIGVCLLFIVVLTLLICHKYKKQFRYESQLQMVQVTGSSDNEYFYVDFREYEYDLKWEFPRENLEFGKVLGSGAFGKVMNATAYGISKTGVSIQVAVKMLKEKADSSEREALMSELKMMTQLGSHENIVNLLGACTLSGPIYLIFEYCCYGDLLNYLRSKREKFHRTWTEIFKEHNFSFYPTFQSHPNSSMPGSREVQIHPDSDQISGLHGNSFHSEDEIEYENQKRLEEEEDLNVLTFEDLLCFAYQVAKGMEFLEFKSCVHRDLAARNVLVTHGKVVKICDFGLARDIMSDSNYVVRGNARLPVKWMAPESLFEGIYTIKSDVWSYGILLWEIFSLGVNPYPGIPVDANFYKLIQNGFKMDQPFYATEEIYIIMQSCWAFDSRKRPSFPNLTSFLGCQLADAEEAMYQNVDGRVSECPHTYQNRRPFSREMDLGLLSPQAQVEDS

As to `Cc1ccc(Nc2ncnc3cc(NC(=O)Nc4ccc(Cl)c(C(F)(F)F)c4)ccc23)cc1`, the IC50 (as a rule, the concentration that inhibits the measured activity by half) is 0.81 µM in the test with HT-29, 1.76 µM in the test on A549 and 2.49 µM in the test on MCF7 [1].
Consider `COc1cc2ncnc(Sc3nnc(C)s3)c2cc1OC`, for which the Activity in the test with HepG2 [2] came out at 60%. In test [3], this compound yielded an IC50 of 11.9 µM. In addition, the inhibition (usually the percentage by which the read-out fell short of the control) in test [4] turned out to be 91%.
Consider `O=C(Nc1ccc(Oc2nc(Cl)nc3ccccc23)cc1)c1cccnc1`, for which the half-maximal inhibitory concentration (IC50) was determined as 24.1 µM in the test with HepG2 [5], 33.4 µM in the test on MCF7 [6] and 40.9 µM with PC-3.
On to `CC(C)c1ccc(Nc2ncnc3cc(NC(=O)Nc4ccccc4)ccc23)cc1`, for which the IC50 in test [7] was found to be 0.479 µM.
In the case of `COc1cc2ncnc(Nc3ccc(-c4noc(Cc5cc6ccccc6[nH]5)n4)cc3)c2cc1OC`, half-maximal inhibition in test [8] (IC50) required 0.017 µM. Besides, the inhibition in test [9] was found to be 91%.
In the case of `O=[N+]([O-])c1ccc(COc2ncnc3ccc([N+](=O)[O-])cc23)cc1`, the IC50 in [10] worked out at 0.00471 µM.
`CNC(=O)c1nc(Nc2ccc(NC(=O)Nc3cccc(C)c3)cc2)c2ccccc2n1` displayed an IC50 in test [11] of 0.0121 µM.
In [12], `COc1cc2ncnc(Nc3ccncc3C(=O)NCc3cccs3)c2cc1OC` gave an IC50 of 0.017 µM.
